From ChEMBL document CHEMBL2074220, “Interaction of human organic anion transporters with various cephalosporin antibiotics” (Eur J Pharmacol, 2002)

Legend:
[1] = biological target: T1, Organic anion transporter 3 (Homo sapiens, UniProt Q8TCC7); experiment: TP_TRANSPORTER: inhibition of Estrone sulfate uptake in OAT3-expressing S2 cells; format: functional, cell-based
T1 sequence (Q8TCC7 whole entry): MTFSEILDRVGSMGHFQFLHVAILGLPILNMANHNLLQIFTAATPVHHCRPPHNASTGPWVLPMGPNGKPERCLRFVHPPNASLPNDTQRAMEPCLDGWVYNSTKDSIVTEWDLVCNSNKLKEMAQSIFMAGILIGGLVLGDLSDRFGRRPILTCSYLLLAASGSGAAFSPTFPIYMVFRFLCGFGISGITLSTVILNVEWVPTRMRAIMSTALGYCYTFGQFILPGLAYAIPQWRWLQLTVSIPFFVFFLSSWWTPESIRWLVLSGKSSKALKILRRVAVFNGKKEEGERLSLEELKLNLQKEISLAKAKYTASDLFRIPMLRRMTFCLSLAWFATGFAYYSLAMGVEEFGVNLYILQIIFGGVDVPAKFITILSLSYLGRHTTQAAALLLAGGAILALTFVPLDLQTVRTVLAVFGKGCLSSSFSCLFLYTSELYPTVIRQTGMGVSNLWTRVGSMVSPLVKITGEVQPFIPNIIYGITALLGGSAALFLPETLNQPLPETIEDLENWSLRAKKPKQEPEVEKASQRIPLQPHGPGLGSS

[2] = biological target: T2, Solute carrier family 22 member 11 (Homo sapiens, UniProt Q9NSA0); experiment: TP_TRANSPORTER: inhibition of Estrone sulfate uptake in OAT4-expressing S2 cells; format: functional, cell-based
T2 sequence (Q9NSA0 whole entry): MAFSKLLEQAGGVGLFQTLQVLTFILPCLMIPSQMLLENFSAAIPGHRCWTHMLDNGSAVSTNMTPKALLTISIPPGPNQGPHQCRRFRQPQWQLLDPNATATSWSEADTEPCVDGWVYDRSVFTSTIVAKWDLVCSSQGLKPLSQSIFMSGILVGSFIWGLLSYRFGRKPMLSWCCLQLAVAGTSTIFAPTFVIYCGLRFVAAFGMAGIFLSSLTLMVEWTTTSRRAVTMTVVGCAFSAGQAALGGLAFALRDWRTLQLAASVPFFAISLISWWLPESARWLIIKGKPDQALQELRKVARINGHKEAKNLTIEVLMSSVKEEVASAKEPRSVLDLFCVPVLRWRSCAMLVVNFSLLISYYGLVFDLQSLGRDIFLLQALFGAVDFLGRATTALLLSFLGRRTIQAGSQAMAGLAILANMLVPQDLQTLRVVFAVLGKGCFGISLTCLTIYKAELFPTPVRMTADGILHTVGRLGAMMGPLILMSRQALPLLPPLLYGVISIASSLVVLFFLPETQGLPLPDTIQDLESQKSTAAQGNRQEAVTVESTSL

Ki [1] [µM]	Ki [2] [µM]	Structure (SMILES)
550		Cc1nnc(SCC2=C(C(=O)O)N3C(=O)[C@@H](NC(=O)Cn4cnnn4)[C@H]3SC2)s1 [CEFAZOLIN]
46		Cn1nnnc1SCC1=C(C(=O)O)N2C(=O)[C@@H](NC(=O)[C@H](O)c3ccccc3)[C@H]2SC1 [CEFAMANDOLE]
40	200	CC(=O)OCC1=C(C(=O)O)N2C(=O)[C@@H](NC(=O)Cc3cccs3)[C@H]2SC1 [CEPHALOTHIN]
290		CO/N=C(\C(=O)N[C@@H]1C(=O)N2C(C(=O)O)=C(COC(C)=O)CS[C@H]12)c1csc(N)n1 [CEFOTAXIME]
